Data taken from patent US20220000971A1, “METHODS AND COMPOUNDS FOR TARGETING SORTILIN RECEPTORS AND INHIBITING VASCULOGENIC MIMICRY” (TRANSFERT PLUS, S.E.C., priority 2018, published 2022).
“Also recorded” adds a separate entry of the source. Where a SMILES comes first, the peptide text is derived from it. Where no end group is shown, it is not given here. [ ]: non-standard residue; d: D form. The star is where a group is joined. X2 = COc1cccc2c1C(=O)c1c(O)c3c(c(O)c1C2=O)C[C@@](O)(C(=O)COC(=O)CC(C)(C)CC(=O)*)C[C@@H]3O[C@H]1C[C@H](N)[C@H](O)[C@H](C)O1; Nle = CCCC[C@H](N)C(=O)O

How the values were obtained:
[1] = system: SK-Hep-1 hepatocellular carcinoma cells; details: Curcumin 3-30 μM, dose-dependent; cited from earlier work
[2] = system: ES-2 ovarian cancer cells; assay: In vitro vasculogenic mimicry, Matrigel tube formation assay (ES-2); assay type: cell-based, human; details: for inhibition of 3D-tubular structures (vasculogenic mimicry): ES-2 seeded on Matrigel, increasing concentrations; for effect on vasculogenic mimicry inhibition caused by KBB106: competitor added to KBB106
[3] = system: MDA-MB-231 cells; assay: Real-time cell migration, xCELLigence (MDA-MB-231); assay type: cell-based
Experimental: (§1) In vitro vasculogenic mimicry of cancer cells was assessed using a Matrigel tube formation assay. In brief, each well of a 96-well plate was pre-coated with Matrigel. ES-2 ovarian cancer or MDA-MB-231 TNBC cell suspensions were seeded on top of Matrigel. 3D-tubular structures were analyzed and quantified using Wimasis Analysis software. Real-time cell migration was evaluated using the ×CELLigence system. Sortilin gene silencing was performed with specific siRNA. Effects of Doxorubicin-KA-peptide conjugate (DoxKA) KBA-106 represented by formula Acetyl-GVRAK(doxorubicin)AGVRN(Nle)FK(doxorubicin)SESY (Formula (XXVIII)) and Docetaxel-KA-peptide conjugate (DoceKA) represented by formula Acetyl-GVRAK(docetaxel)AGVRN(Nle)FK(docetaxel)SESY (Formula (XXIII)) targeting Sortilin on vasculogenic mimicry and cell migration were determined.
MDA-MB-231 cells were used as a TNBC cell model for in vitro and in vivo xenograft (CD1 nude mice) assays. Cell migration was assessed using the ×CELLigence real-time system, whereas MTT assay was used for cell proliferation analysis. Apoptosis biomarkers expression was assessed by immunoblotting.

[4] = system: ES-2 ovarian cancer cells; assay: Real-time cell migration, xCELLigence (ES-2); assay type: cell-based, human
Experimental: as §1

[5] = system: ES-2 ovarian cancer cell line; assay: Intracellular delivery (uptake) of DoxKA, ES-2; assay type: cell-based, human; details: Sortilin silencing or ligand competition
Experimental: (§2) As a proof-of-concept, Doxorubicin was conjugated to a Sortilin binding peptide (KA-peptide). In vitro, intracellular delivery of the Doxorubicin-KA-peptide conjugate (DoxKA) KBB-106 represented by formula Acetyl-GVRAK(doxorubicin)AGVRN(Nle)FK(doxorubicin)SESY (Formula (XXVIII)) was assessed in ES-2 and SKOV-3 ovarian cancer cell line models using flow cytometry and fluorescent microscopy. Sortilin gene silencing was performed with specific siRNA. DoxKA efficacy and safety were evaluated in vivo using ES-2 (CD1 nude mice) and SKOV-3 (athymic mice) subcutaneous xenograft models.

[6] = system: SKOV-3 ovarian cancer cell line; assay: Intracellular delivery (uptake) of DoxKA, SKOV-3; assay type: cell-based; details: Sortilin silencing or ligand competition
Experimental: as §2

[7] = target: T1, P-glycoprotein (P-gp) efflux pump (Homo sapiens, UniProt P08183); assay: Uptake in MDCK-MDR1 cells overexpressing P-gp; assay type: in vitro ADME; details: with P-gp inhibitor Cyclosporin A
T1 construct: expressed in transfected cells; host or cells: MDCK-MDR1 cells
T1 sequence (P08183 whole entry): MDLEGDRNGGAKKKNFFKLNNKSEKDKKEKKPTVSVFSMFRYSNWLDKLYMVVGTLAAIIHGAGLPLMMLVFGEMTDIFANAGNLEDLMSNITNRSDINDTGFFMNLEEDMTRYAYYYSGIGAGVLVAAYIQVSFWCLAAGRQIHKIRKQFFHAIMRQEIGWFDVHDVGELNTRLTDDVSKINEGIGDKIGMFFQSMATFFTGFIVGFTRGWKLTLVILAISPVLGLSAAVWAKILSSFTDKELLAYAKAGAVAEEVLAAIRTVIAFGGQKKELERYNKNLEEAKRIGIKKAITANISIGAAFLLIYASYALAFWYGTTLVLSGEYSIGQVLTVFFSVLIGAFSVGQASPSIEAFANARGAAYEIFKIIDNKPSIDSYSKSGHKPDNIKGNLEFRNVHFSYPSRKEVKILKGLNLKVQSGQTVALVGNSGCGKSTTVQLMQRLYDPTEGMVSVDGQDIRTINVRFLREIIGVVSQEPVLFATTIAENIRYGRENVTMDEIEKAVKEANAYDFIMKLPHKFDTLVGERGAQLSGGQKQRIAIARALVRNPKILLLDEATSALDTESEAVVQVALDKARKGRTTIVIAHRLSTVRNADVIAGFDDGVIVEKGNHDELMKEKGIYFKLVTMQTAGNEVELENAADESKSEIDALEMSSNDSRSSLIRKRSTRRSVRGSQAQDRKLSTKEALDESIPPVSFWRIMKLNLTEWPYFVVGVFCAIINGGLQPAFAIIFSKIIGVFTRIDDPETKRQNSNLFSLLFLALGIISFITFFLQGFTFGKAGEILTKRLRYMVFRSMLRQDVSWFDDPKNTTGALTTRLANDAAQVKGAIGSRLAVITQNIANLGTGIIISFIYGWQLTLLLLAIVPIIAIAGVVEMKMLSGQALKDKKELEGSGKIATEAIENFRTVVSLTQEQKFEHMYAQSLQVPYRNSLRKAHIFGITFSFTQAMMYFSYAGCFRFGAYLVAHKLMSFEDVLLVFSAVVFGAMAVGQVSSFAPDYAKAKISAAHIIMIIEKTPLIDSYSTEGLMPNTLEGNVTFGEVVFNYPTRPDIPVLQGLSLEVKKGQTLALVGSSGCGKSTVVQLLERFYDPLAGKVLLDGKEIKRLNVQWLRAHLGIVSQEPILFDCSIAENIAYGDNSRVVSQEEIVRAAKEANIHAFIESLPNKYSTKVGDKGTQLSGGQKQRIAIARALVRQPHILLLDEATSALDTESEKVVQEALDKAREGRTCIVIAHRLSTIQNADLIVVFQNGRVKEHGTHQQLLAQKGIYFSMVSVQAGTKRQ

[8] = system: human ovarian tumor xenografts; assay: DoxKA efficacy and safety in ES-2 and SKOV-3 subcutaneous xenograft models; assay type: in vivo, mice
Experimental: as §2

[9] = target: T2, Sortilin receptor (Homo sapiens, UniProt Q99523); assay: Cell surface binding assay with anti-Sortilin-Alexa488; details: antibody 1 μg/ml, 30 minutes; ES-2 cells; competitor present
T2 construct: endogenous in cells; host or cells: ES-2 human ovarian cancer cells
T2 sequence (Q99523 78-831): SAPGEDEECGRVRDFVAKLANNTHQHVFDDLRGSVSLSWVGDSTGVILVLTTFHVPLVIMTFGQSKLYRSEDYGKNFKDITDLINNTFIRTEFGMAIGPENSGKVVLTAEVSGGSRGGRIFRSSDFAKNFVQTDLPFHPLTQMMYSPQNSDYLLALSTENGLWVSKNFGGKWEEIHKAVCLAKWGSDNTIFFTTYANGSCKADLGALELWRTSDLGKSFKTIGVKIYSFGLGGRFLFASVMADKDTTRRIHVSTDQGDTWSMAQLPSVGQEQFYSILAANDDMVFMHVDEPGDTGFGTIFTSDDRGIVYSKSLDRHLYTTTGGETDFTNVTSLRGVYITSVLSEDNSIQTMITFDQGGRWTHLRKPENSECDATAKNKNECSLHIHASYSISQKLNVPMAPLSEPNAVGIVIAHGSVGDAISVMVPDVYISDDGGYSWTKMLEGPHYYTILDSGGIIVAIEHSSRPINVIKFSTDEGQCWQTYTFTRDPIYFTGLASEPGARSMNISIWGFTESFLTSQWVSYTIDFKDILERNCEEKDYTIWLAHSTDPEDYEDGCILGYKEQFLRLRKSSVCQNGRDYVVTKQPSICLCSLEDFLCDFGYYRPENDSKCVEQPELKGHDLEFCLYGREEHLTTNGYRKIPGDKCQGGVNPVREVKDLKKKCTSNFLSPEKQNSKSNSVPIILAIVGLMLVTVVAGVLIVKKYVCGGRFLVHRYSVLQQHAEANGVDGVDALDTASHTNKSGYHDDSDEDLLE
Experimental: Labeling of anti-Sortilin antibody was performed with the Alexa Fluor 488 protein labeling kit from Invitrogen according to manufacturer's instructions.

[10] = system: MDA-MB-231 cells; assay: Cell death / apoptosis (Annexin V-FITC/PI); assay type: cell-based; details: SORT1 ligand competition
Experimental: MDA-MB-231 cells treated for 5 hours with control (vehicle) or with increasing concentrations of Docetaxel or DoceKA. Cells were then harvested and the rate of apoptosis was determined following staining with Annexin V-FITC and propidium iodide (PI). Cells were analyzed by flow cytometry.

[11] = target: T3, Sortilin receptor (human, UniProt Q99523 78-831); assay: inferred from the vasculogenic mimicry assay of ES-2 cells, excess KBP106 against KBB106
T3 construct: whole, on cells; also called SORT1
T3 sequence (looked up): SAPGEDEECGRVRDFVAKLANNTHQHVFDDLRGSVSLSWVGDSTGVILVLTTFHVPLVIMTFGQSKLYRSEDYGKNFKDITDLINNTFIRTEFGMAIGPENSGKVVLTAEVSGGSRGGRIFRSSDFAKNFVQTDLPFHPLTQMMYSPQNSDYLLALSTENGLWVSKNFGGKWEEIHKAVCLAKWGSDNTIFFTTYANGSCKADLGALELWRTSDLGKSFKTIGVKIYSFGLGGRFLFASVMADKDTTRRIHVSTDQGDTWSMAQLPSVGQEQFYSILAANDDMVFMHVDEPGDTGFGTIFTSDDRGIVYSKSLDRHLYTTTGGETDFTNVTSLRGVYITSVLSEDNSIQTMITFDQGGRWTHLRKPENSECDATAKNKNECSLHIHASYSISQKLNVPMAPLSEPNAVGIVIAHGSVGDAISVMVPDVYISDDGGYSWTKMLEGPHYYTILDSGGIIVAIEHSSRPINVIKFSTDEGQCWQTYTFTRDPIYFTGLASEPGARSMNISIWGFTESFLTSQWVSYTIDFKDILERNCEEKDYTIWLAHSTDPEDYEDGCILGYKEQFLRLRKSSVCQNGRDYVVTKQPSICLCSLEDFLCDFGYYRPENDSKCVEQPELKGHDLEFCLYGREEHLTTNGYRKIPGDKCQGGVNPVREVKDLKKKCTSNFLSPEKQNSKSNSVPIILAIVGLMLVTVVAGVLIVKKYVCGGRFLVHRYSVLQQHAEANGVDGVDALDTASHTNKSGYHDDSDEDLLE

**Q.** Which “inhibition of tube formation” value [1] does the source give for COc1cc(/C=C/C(=O)CC(=O)/C=C/c2ccc(O)c(OC)c2)ccc1O [Curcumin, diferuloylmethane] here?
**A.** The value was 18-92%.

**Q.** With CCCC[C@H](NC(=O)[C@H](CC(N)=O)NC(=O)[C@H](CCCNC(=N)N)NC(=O)[C@@H](NC(=O)CNC(=O)[C@H](C)NC(=O)[C@H](CCCCNC(=O)CC(C)(C)CC(=O)OCC(=O)[C@]1(O)Cc2c(O)c3c(c(O)c2[C@@H](O[C@H]2C[C@H](N)[C@H](O)[C@H](C)O2)C1)C(=O)c1c(OC)cccc1C3=O)NC(=O)[C@H](C)NC(=O)[C@H](CCCNC(=N)N)NC(=O)[C@@H](NC(=O)CNC(C)=O)C(C)C)C(C)C)C(=O)N[C@@H](Cc1ccccc1)C(=O)N[C@@H](CCCCNC(=O)CC(C)(C)CC(=O)OCC(=O)[C@]1(O)Cc2c(O)c3c(c(O)c2[C@@H](O[C@H]2C[C@H](N)[C@H](O)[C@H](C)O2)C1)C(=O)c1c(OC)cccc1C3=O)C(=O)N[C@@H](CO)C(=O)N[C@@H](CCC(=O)O)C(=O)N[C@@H](CO)C(=O)N[C@@H](Cc1ccc(O)cc1)C(=O)O [DoxKA, Acetyl-GVRAK(doxorubicin)AGVRN(Nle)FK(doxorubicin)SESY] (Ac-GVRAK(X2)AGVRN[Nle]FK(X2)SESY-OH) as the molecule, how does the “concentration at which total number of loops and total tube length are inhibited” value ([2]; ES-2 on Matrigel) read?
**A.** Its value is “inhibited at low nM concentrations”.

**Q.** What about the “vasculogenic mimicry inhibition compared to unconjugated drug” value ([2]; ES-2 on Matrigel, 12 hrs, equivalent concentration of free drug (Docetaxel 600 pM)) of the same molecule?
**A.** Its value is “stronger inhibition of vasculogenic mimicry than unconjugated free drugs”.

**Q.** And the “inhibition of 3D-tubular structures (vasculogenic mimicry)” value (shortened to “inhibition … (vasculogenic mimicry)”) [2]?
**A.** Its value is “strongly inhibited; also recorded: inhibited”.

**Q.** And the “inhibition … (vasculogenic mimicry)” value ([2]; listed as KBB106)?
**A.** The value was “vascukogenic mimicry inhibition”.

**Q.** What about the “IC50 values for vasculogenic mimicry inhibition” value ([2]; Example 2, ovarian cancer and TNBC cells) of the same molecule?
**A.** Its value is “low nM to pM”.

**Q.** What about the cell migration [3] of the same molecule?
**A.** The cell migration was “inhibited”.

**Q.** What about the cell migration [4] of the same molecule?
**A.** The cell migration was “inhibited”.

**Q.** And the uptake [5]?
**A.** The uptake was “reduced when Sortilin expression was specifically silenced or upon competition with the Sortilin ligands Neurotensin and Progranulin”.

**Q.** And the uptake [6]?
**A.** The uptake was “reduced when Sortilin expression was specifically silenced or upon competition with the Sortilin ligands Neurotensin and Progranulin”.

**Q.** And the “uptake in P-gp overexpressing cells” value [7]?
**A.** Its value is “unaffected by the P-gp inhibitor Cyclosporin A”.

**Q.** What about the “inhibition of tumor xenografts growth compared to unconjugated Doxorubicin” value ([8]; equivalent dose) of the same molecule?
**A.** The value was “more potent inhibition”.

**Q.** And the “tolerability compared to unconjugated Doxorubicin” value ([8]; equivalent dose)?
**A.** The value was “better tolerated (absence of leukopenia and neutropenia)”.

**Q.** What about the “accumulation in healthy tissues compared to Doxorubicin” value ([8]; in vivo, heart and ovary) of the same molecule?
**A.** The value was “decreased accumulation in healthy tissues such as heart and ovary”.

**Q.** With “Acetyl-GVRAKAGVRN(Nle)FKSESYC(aldoxorubicin) [AldoxKA]” as the molecule, how does the “inhibition … (vasculogenic mimicry)” value [2] read?
**A.** Its value is “inhibited”.

**Q.** Which “effect of Sortilin ligand alone on vasculogenic mimicry” value ([2]; ES-2, 12 hours) does the source give for “progranulin: Sortilin ligand [reference compound]” here?
**A.** The value was “do not effect vasculogenic mimicry”.

**Q.** And the “effect on vasculogenic mimicry inhibition caused by KBB106” value ([2]; ES-2)?
**A.** Its value is “reverses vasculogenic mimicry inhibition”.

**Q.** What about the “effect on binding of anti-Sortilin-Alexa488 at the cell surface” value (shortened to “effect on binding”) [9] of the same molecule?
**A.** Its value is “inhibited”.

**Q.** What about the “effect on apoptotic and anti-migratory effects of DoceKA” value [10] of the same molecule?
**A.** Its value is “reversed”.

**Q.** For “Acetyl-GVRAKAGVRN(Nle)FKSESY (Ac-GVRAKAGVRN[Nle]FKSESY) [KBP106]”, which “effect on vasculogenic mimicry inhibition caused by KBB106” value ([2]; ES-2) is on record?
**A.** The value was “prevents vascukogenic mimicry inhibition by KBB106”.

**Q.** What about the “effect of peptide alone on vasculogenic mimicry” value ([2]; up to 50 μM, ES-2, 24 hours) of the same molecule?
**A.** Its value is “no significant effect”.

**Q.** What about the “effect on binding” value [9] of the same molecule?
**A.** The value was “strongly reduced the binding”.

**Q.** For “Acetyl-YKSLRRKAPRWDAPLRDPALRQLL (Ac-YKSLRRKAPRWDAPLRDPALRQLL) [KBP201]”, which “effect on binding” value [9] is on record?
**A.** The value was “strongly reduced the binding”.

B1: KBP-106: Acetyl-GVRAKAGVRN(Nle)FKSESY (peptide)
peptide: Ac-GVRAKAGVRN[Nle]FKSESY
notes: also called Katana peptide; KA-peptide
**Q.** Does B1 bind [11]?
**A.** Result: binds
